Like-named read-outs stand apart in the source and are kept apart here.
What was measured:
[1] = system: HeLa human cervical tumor cells; assay: Proliferation assay (HeLa+Paclitaxel); conditions: read-out: Biological Assay 3: HeLa + Paclitaxel IC50, 3 nM paclitaxel, crystal violet;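 note: compounds at 0.001-10 µM added 4 h after paclitaxel, 92 h exposure, absorbance normalized to zero-point plate (0%) and untreated cells (100%), IC50 from 4-parameter fit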
[2] = system: HeLa; assay: Proliferation assay (HeLa cell line); conditions: Homo sapiens, 96 h, read-out: Biological Assay 2: Proliferation assay (HeLa cell line) median IC50;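 note: crystal violet staining of cell number, scaled between a plate stained before dosing (0%) and cells left untreated (100%), compounds tested at 0.001-10 µM, IC50 via 4-parameter fit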
Protocol: Cultivated tumor cells (cells were ordered from ATCC, except HeLa-MaTu and HeLa-MaTu-ADR, which were ordered from EPO-GmbH, Berlin) were plated at a density of 1000 to 5000 cells/well, depending on the growth rate of the respective cell line, in a 96-well multititer plate in 200 μL of their respective growth medium supplemented 10% fetal calf serum. After 24 hours, the cells of one plate (zero-point plate) were stained with crystal violet (see below), while the medium of the other plates was replaced by fresh culture medium (200 μL), to which the test substances were added in various concentrations (0 μM, as well as in the range of 0.001-10 μM; the final concentration of the solvent dimethyl sulfoxide was 0.5%). The cells were incubated for 4 days in the presence of test substances. Cell proliferation was determined by staining the cells with crystal violet: the cells were fixed by adding 20 μL measuring point of an 11% glutaric aldehyde solution for 15 minutes at room temperature. After three washing cycles of the fixed cells with water, the plates were dried at room temperature. The cells were stained by adding 100 μL/measuring point of a 0.1% crystal violet solution (pH 3.0). After three washing cycles of the stained cells with water, the plates were dried at room temperature. The dye was dissolved by adding 100 μl/measuring point of a 10% acetic acid solution. […] The change of cell number, in percent, was calculated by normalization of the measured values to the absorbtion values of the zero-point plate (=0%) and the absorbtion of the untreated (0 μm) cells (=100%). The IC50 values were determined by means of a 4 parameter fit.

[3] = biological target: T1, catalytic domain of human Bub1 (amino acids 704-1085) (Homo sapiens, UniProt O43683); assay: Bub1 kinase assay (TR-FRET); format: biochemical
T1 construct: catalytic domain of human Bub1 (amino acids 704-1085); His6 (N); made in house; host or cells: Hi5 insect cells
Outline: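 Compounds from 2 mM DMSO stocks, serially diluted 1:3.4, incubated with enzyme at 22° C for 60 min. Stopped with EDTA, then 1 h with streptavidin-XL665, anti-phosphoserine antibody and Eu-labelled anti-mouse IgG. Phosphorylated biotin-peptide read by TR-FRET; IC50 by 4-parameter logistic fit.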

[4] = Biological Assay 1: Bub1 kinase assay median IC50, 10 μM ATP
[5] = 10 μM ATP, read-out: Biological Assay 1: Bub1 kinase assay median IC50

T1 sequence (O43683 704-1085): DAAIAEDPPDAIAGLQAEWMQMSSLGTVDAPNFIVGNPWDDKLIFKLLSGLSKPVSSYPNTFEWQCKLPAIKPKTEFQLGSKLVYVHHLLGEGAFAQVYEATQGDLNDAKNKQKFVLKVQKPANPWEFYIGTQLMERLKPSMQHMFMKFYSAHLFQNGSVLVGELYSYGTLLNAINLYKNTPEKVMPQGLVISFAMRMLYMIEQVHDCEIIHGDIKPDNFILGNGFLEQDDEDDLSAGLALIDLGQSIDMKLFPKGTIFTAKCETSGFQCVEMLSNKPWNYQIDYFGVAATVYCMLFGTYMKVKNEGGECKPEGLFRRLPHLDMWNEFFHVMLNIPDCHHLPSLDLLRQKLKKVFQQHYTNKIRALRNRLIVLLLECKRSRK

Row | Structure (SMILES) | IC50 [1] | IC50 [2] | IC50 [3, 4] | IC50 [3, 5]
1 | COCCOc1cc(F)c(Cn2nc(-c3nc4c(c(Nc5ccncc5Cl)n3)CCC4)c3ccccc32)c(F)c1 [Example 2-12-30, N-(3-chloropyridin-4-yl)-2-{1-[2,6-difluoro-4-(2-methoxyethoxy)benzyl]-1H-indazol-3-yl}-6,7-dihydro-5H-cyclopenta[d]pyrimidin-4-amine] | 140 nM | 8600 nM | 60 nM | 
2 | COCCOc1cc(F)c(Cn2nc(-c3nc(CN4CCOCC4)cc(Nc4ccncc4OC)n3)c3ccccc32)c(F)c1 [Example 2-12-42, 2-{1-[2,6-difluoro-4-(2-methoxyethoxy)benzyl]-1H-indazol-3-yl}-N-(3-methoxypyridin-4-yl)-6-(morpholin-4-ylmethyl)pyrimidin-4-amine] | 240 nM | 3400 nM | 16 nM | 
3 | CCOc1cc(F)c(Cn2nc(-c3nc(CN4CCOCC4)cc(Nc4cc(C)nc(C)n4)n3)c3ccccc32)c(F)c1 [Example 2-12-44, N-(2,6-dimethylpyrimidin-4-yl)-2-[1-(4-ethoxy-2,6-difluorobenzyl)-1H-indazol-3-yl]-6-(morpholin-4-ylmethyl)pyrimidin-4-amine] | 89 nM | 9600 nM | 320 nM | 
4 | CCOc1cc(F)c(Cn2nc(-c3nc4c(c(Nc5cc(OC)ncn5)n3)CCC4)c3ccccc32)c(F)c1 [Example 2-12-26, 2-[1-(4-ethoxy-2,6-difluorobenzyl)-1H-indazol-3-yl]-N-(6-methoxypyrimidin-4-yl)-6,7-dihydro-5H-cyclopenta[d]pyrimidin-4-amine] | 1000 nM | 8000 nM | 130 nM | 
5 | CCOc1cc(F)c(Cn2nc(-c3ncc(OCCN)c(Nc4ccncc4)n3)c3ccccc32)c(F)c1 [Example 3-4-1, 5-(2-aminoethoxy)-2-[1-(4-ethoxy-2,6-difluorobenzyl)-1H-indazol-3-yl]-N-(pyridin-4-yl)pyrimidin-4-amine, reference compound] |  | 1400 nM |  | 3.4 nM
6 | CCOc1cc(F)c(Cn2nc(-c3nc4c(c(Nc5cc(Cl)ncn5)n3)CCC4)c3ccccc32)c(F)c1 [Example 2-12-32, N-(6-chloropyrimidin-4-yl)-2-[1-(4-ethoxy-2,6-difluorobenzyl)-1H-indazol-3-yl]-6,7-dihydro-5H-cyclopenta[d]pyrimidin-4-amine] | 530 nM | > 10000 nM | 330 nM | 
7 | CCOc1cc(F)c(Cn2nc(-c3nc(Nc4ccncn4)cc(-c4nccs4)n3)c3ccccc32)c(F)c1 [Example 2-12-95, 2-[1-(4-ethoxy-2,6-difluorobenzyl)-1H-indazol-3-yl]-N-(pyrimidin-4-yl)-6-(1,3-thiazol-2-yl)pyrimidin-4-amine] | 9800 nM | > 10000 nM | 26 nM | 
8 | CCOc1cc(F)c(Cn2nc(-c3nc4c(c(Nc5ccncc5C(=O)O)n3)CCC4)c3ccccc32)c(F)c1 [Example 2-14-9, 4-({2-[1-(4-ethoxy-2,6-difluorobenzyl)-1H-indazol-3-yl]-6,7-dihydro-5H-cyclopenta[d]pyrimidin-4-yl}amino)pyridine-3-carboxylic acid] | > 10000 nM | > 10000 nM | 66 nM | 
9 | COc1cnccc1Nc1cc(C(C)C)nc(-c2nn(Cc3c(F)cc(OCCO)cc3F)c3ccccc23)n1 [Example 2-6-29, 2-{3,5-difluoro-4-[(3-{4-isopropyl-6-[(3-methoxypyridin-4-yl)amino]pyrimidin-2-yl}-1H-indazol-1-yl)methyl]phenoxy}ethanol] | 210 nM | 1300 nM |  | 31 nM
10 | COCCOc1cc(F)c(Cn2nc(-c3nc4c(c(Nc5ccncc5OC)n3)CCC4)c3ccccc32)c(F)c1 [Example 2-12-31, 2-{1-[2,6-difluoro-4-(2-methoxyethoxy)benzyl]-1H-indazol-3-yl}-N-(3-methoxypyridin-4-yl)-6,7-dihydro-5H-cyclopenta[d]pyrimidin-4-amine] | 80 nM | 3900 nM | 13 nM | 
11 | COc1cnccc1Nc1nc(-c2nn(Cc3c(F)cc(OCCO)cc3F)c3ccccc23)ncc1C [Example 2-6-34, 2-{3,5-difluoro-4-[(3-{4-[(3-methoxypyridin-4-yl)amino]-5-methylpyrimidin-2-yl}-1H-indazol-1-yl)methyl]phenoxy}ethanol] | 1100 nM | 3400 nM |  | 5.1 nM
12 | CC1(C)CCc2c(nc(-c3nn(Cc4c(F)cc(OCCO)cc4F)c4ccccc34)nc2Nc2ccncc2Cl)C1 [Example 2-6-25, 2-{4-[(3-{4-[(3-chloropyridin-4-yl)amino]-7,7-dimethyl-5,6,7,8-tetrahydroquin-azolin-2-yl}-1H-indazol-1-yl)methyl]-3,5-difluorophenoxy} ethanol] | 370 nM | 7600 nM | 48 nM | 
13 | CCOc1cc(F)c(Cn2nc(-c3nc(Nc4ccnc(C)n4)cc(-c4ccn(C)n4)n3)c3ccccc32)c(F)c1 [Example 2-12-93, 2-[1-(4-ethoxy-2,6-difluorobenzyl)-1H-indazol-3-yl]-6-(1-methyl-1H-pyrazol-3-yl)-N-(2-methylpyrimidin-4-yl)pyrimidin-4-amine] | > 10000 nM | > 10000 nM | 30 nM | 
14 | CCOc1cc(F)c(Cn2nc(-c3nc4c(c(Nc5ccnc(S(C)(=O)=O)c5)n3)CCC4)c3ccccc32)c(F)c1 [Example 2-19-6, 2-[1-(4-ethoxy-2,6-difluorobenzyl)-1H-indazol-3-yl]-N-[2-(methylsulfonyl)pyridin-4-yl]-6,7-dihydro-5H-cyclopenta[d]pyrimidin-4-amine] | 480 nM | > 10000 nM |  | 
15 | COc1cnccc1Nc1nc(-c2nn(Cc3c(F)cc(OCCO)cc3F)c3ccccc23)ncc1C1CC1 [Example 2-6-36, 2-{4-[(3-{5-cyclopropyl-4-[(3-methoxypyridin-4-yl)amino]pyrimidin-2-yl}-1H-indazol-1-yl)methyl]-3,5-difluorophenoxy} ethanol] | 630 nM | 3400 nM |  | 9.6 nM
16 | CCOc1cc(F)c(Cn2nc(-c3nc4c(c(Nc5cc(C)nc(C)n5)n3)CCC4)c3ccccc32)c(F)c1 [Example 2-12-27, N-(2,6-dimethylpyrimidin-4-yl)-2-[1-(4-ethoxy-2,6-difluorobenzyl)-1H-indazol-3-yl]-6,7-dihydro-5H-cyclopenta[d]pyrimidin-4-amine] | 210 nM | 3100 nM | 610 nM | 
17 | Cc1cc(Nc2ccnc(C)n2)nc(-c2nn(Cc3c(F)cc(OCCO)cc3F)c3ccccc23)n1 [Example 2-6-27, 2-{3,5-difluoro-4-[(3-{4-methyl-6-[(2-methylpyrimidin-4-yl)amino]pyrimidin-2-yl}-1H-indazol-1-yl)methyl]phenoxy}ethanol] | 290 nM | 5100 nM | 43 nM | 
18 | Cc1cc(Nc2ccncc2OC(F)(F)F)nc(-c2nn(Cc3c(F)cc(OCCO)cc3F)c3ccccc23)n1 [Example 2-6-35, 2-(3,5-difluoro-4-{[3-(4-methyl-6-{[3-(trifluoromethoxy)pyridin-4-yl]amino}pyrimidin-2-yl)-1H-indazol-1-yl]methyl}phenoxy)ethanol] | 1300 nM | 2300 nM |  | 5.4 nM
19 | CCOc1cc(F)c(Cn2nc(-c3ncc(OCC[S+](C)[O-])c(Nc4ccncc4)n3)c3ccccc32)c(F)c1 (centres unmarked) [Example 3-2-1, 2-[1-(4-ethoxy-2,6-difluorobenzyl)-1H-indazol-3-yl]-5-[2-(methylsulfinyl)ethoxy]-N-(pyridin-4-yl)pyrimidin-4-amine, reference compound] | 410 nM | 4500 nM |  | 
20 | CCOc1cc(F)c(Cn2nc(-c3nc4c(c(Nc5ccncc5Cl)n3)CCC4)c3ccccc32)c(F)c1 [Example 2-14-7, N-(3-chloropyridin-4-yl)-2-[1-(4-ethoxy-2,6-difluorobenzyl)-1H-indazol-3-yl]-6,7-dihydro-5H-cyclopenta[d]pyrimidin-4-amine] |  |  | 9.7 nM | 
21 | COCCOc1cc(F)c(Cn2nc(-c3nc(CN4CCOCC4)cc(Nc4ccnc(C(F)F)c4)n3)c3ccccc32)c(F)c1 [Example 2-12-36, 2-{1-[2,6-difluoro-4-(2-methoxyethoxy)benzyl]-1H-indazol-3-yl}-N-[2-(difluoromethyl)pyridin-4-yl]-6-(morpholin-4-ylmethyl)pyrimidin-4-amine] |  |  | 57 nM | 
22 | COCCOc1cc(F)c(Cn2nc(-c3nc4c(c(Nc5ccncc5Cl)n3)CCC(C)(C)C4)c3ccccc32)c(F)c1 [Example 2-15-10, N-(3-chloropyridin-4-yl)-2-{1-[2,6-difluoro-4-(2-methoxyethoxy)benzyl]-1H-indazol-3-yl}-7,7-dimethyl-5,6,7,8-tetrahydroquinazolin-4-amine] |  |  | 1400 nM | 
23 | Cc1nccc(Nc2cc(C(C)C)nc(-c3nn(Cc4c(F)cc(OCCO)cc4F)c4ccccc34)n2)n1 [Example 2-6-28, 2-{3,5-difluoro-4-[(3-{4-isopropyl-6-[(2-methylpyrimidin-4-yl)amino]pyrimidin-2-yl}-1H-indazol-1-yl)methyl]phenoxy}ethanol] |  |  | 510 nM | 
24 | COCCOc1cc(F)c(Cn2nc(-c3nc4c(c(Nc5ccncc5OC)n3)CCCCC4)c3ccccc32)c(F)c1 [Example 2-12-70, 2-{1-[2,6-difluoro-4-(2-methoxyethoxy)benzyl]-1H-indazol-3-yl}-N-(3-methoxypyridin-4-yl)-6,7,8,9-tetrahydro-5H-cyclohepta[d]pyrimidin-4-amine] |  |  | 9.9 nM | 
